For one data set, the system named is BDF1 mice. Briefly: Appetite-stimulating and body weight-increasing effects, intraperitoneal administration once a day for 15 days. Type of data set: in vivo, mouse. The settings on record: BDF1 mice (7 weeks old, female), i.p. once a day for 15 days, vs control group; for body weight: FIG. 1; for food intake: FIG. 2. How it is done:
(§1) A subjective compound was suspended in saline containing 3.5% dimethylsulfoxide and 6.5% Tween 80, and intraperitoneally administered to BDF1 mice (7 weeks old, female) in a given amount once a day for 15 days (day 0 to day 14). To mice of a control group, saline containing 3.5% dimethylsulfoxide and 6.5% Tween 80 was intraperitoneally administered. Administration was conducted at 1 p.m. every day, and the body weight (day 0 to day 15) and the food intake since the preceding day (day 1 to day 15) were weighed immediately before the administration. The experiments were conducted using 5 mice per group for each of the drug-administered group and the control group. The numbers of the compound examples are the same as in the list described above (hereinafter, the same applies).

For a further data set, the system named is mice. The data set can be described thus: Toxicity observation on successive administration to mice for 15 days. The format is in vivo. The settings on record: 100 mg/kg and 200 mg/kg successively for 15 days. How it is done:
as §1
Thus, it is considered that the compound represented by the general formula (I) has low toxicity.

For a further data set, the system named is Interleukin-1-beta. The data set can be described thus: Gene expression analysis of white adipose tissues by GeneChip (Affymetrix) Murine Genome U74A. Type of data set: in vivo, mouse. The settings on record: day 15, 200 mg/kg i.p. once a day for 15 days, BDF1 mice, Accession M15131. The method, then: (§2) The compound of the Compound 17 was suspended in saline containing 3.5% dimethylsulfoxide and 6.5% Tween 80, and intraperitoneally administered to BDF1 mice (7 weeks old, female) in an amount of 200 mg/kg once a day for 15 days (day 0 to day 14). To mice of a control group, saline containing 3.5% dimethylsulfoxide and 6.5% Tween 80 was intraperitoneally administered. The experiments were conducted using 5 mice per group for each of the drug-administered group and the control group. On day 15, white adipose tissues were collected from the mice of the drug-administered group and the control group, and were examined for expression levels of mRNA using GeneChip (Affymetrix) Murine Genome U74A. The experimental operation was conducted in accordance with GeneChip Expression Analysis Technical Manual, and the quantitative analysis was conducted using GeneChip Software.

Data set [1] has as its system griPGHS (Glucocorticoid-regulated inflammatory prostaglandin G/H synthase). Described as above. Type of data set: in vivo, mouse. The settings on record: day 15, 200 mg/kg i.p. once a day for 15 days, BDF1 mice, Accession M88242. The method, then:
as §2

A further data set relates to Interleukin-6. Described as above. The format is in vivo, mouse. Particulars: day 15, 200 mg/kg i.p. once a day for 15 days, BDF1 mice, Accession X54542. The method, then:
as §2

The structures appear in SMILES notation.

Regarding `N#Cc1ccc(S(=O)(=O)Nc2cccc3c(Cl)c[nH]c23)cc1` [Compound 10, N-(3-Chloro-1H-indol-7-yl)-4-cyanobenzenesulfonamide], in the data set on BDF1 mice, the body weight entry is recorded as “increased” and the food intake result is “increased”. Moreover, in the data set with mice, the body weight increase result is recorded as “body weight increase depending on dose”, the “condition of the mice” value is recorded as “quite normal condition” and the toxicity entry is recorded as “no observation indicating toxicity”.

Consider `N#Cc1c[nH]c2c(NS(=O)(=O)c3cccc(Cl)c3)cccc12` [Compound 17, 3-Chloro-N-(3-cyano-1H-indol-7-yl)benzenesulfonamide], for which the “Expression level ratio (drug-administered group/control group), Interleukin-1-beta mRNA” value with Interleukin-1-beta was found to be 22%. In addition, in data set [1], the “Expression level ratio (drug-administered group/control group), griPGHS mRNA” value amounted to 26%. Besides, the “Expression level ratio (drug-administered group/control group), Interleukin-6 mRNA” value in the data set with Interleukin-6 came out at 24%. For the same compound, in the data set with BDF1 mice, the body weight entry was “increased” and the food intake entry is on record as “increased”. Also, in the data set with mice, the body weight increase result is on record as “body weight increase depending on dose”, the “condition of the mice” value was “quite normal condition” and the toxicity result was “no observation indicating toxicity”.

Turning to `N#Cc1cccc(S(=O)(=O)Nc2cccc3c(C#N)c[nH]c23)c1` [Compound 51, 3-Cyano-N-(3-cyano-1H-indol-7-yl)benzenesulfonamide], in the data set on BDF1 mice, the body weight entry is reported as “increased” and the food intake entry is “increased”. Besides, in the data set on mice, the body weight increase entry is recorded as “body weight increase depending on dose”, the “condition of the mice” value is given as “quite normal condition” and the toxicity result is “no observation indicating toxicity”.

For `Cc1ccc(NS(=O)(=O)c2cccc(C#N)c2)c2[nH]cc(C#N)c12` [Compound 94, 3-Cyano-N-(3-cyano-4-methyl-1H-indol-7-yl)-benzenesulfonamide], in the data set on BDF1 mice, the body weight entry was “increased” and the food intake entry is listed as “increased”. For the same compound, in the data set with mice, the body weight increase entry was “body weight increase depending on dose”, the “condition of the mice” value is “quite normal condition” and the toxicity entry was “no observation indicating toxicity”.

For the origin of these results see patent US7015241B2, “Appetite-stimulating agents and remedies for anorexia” (Eisai Co., Ltd., priority 2001, dated 2006).
